Reference: patent US20030130225A1, “Novel methods of treating local fungal and bacterial infections” (priority 2001, published 2003)
Where two headings read alike, the source gives them in different places.

Key:
Candida albicans = conditions: for rabbits with no Candida albicans in culture of the vaginal mucosa: 72 hours post dosage
Description: Thirty-five female albino rabbits vaginally infected with Candida albicans were randomly assigned to seven dosage groups, 5 rabbits per group.

Candida vaginitis = conditions: single dose oral; cited from earlier work
[1] = human, in vivo, po; cited from earlier work

OC(Cn1cncn1)(Cn1cncn1)c1ccc(F)cc1F [Fluconazole, fluconazole]
rabbits with no Candida albicans in culture of the vaginal mucosa (Candida albicans; 0.5 mg/kg oral fluconazole once): 40%
rabbits with no Candida albicans in culture of the vaginal mucosa (Candida albicans; 1.0 mg/kg oral fluconazole once): 100%
rabbits with no Candida albicans in culture of the vaginal mucosa (Candida albicans; 2.0 mg/kg oral fluconazole once): 60%
irritation to the vaginal epithelium (Candida albicans; rabbit, in vivo): mild irritation
average time for the onset of symptom relief (Candida vaginitis): about 2.4 days
time to reach peak plasma concentration [1]: about 3 hours
time to reach vaginal tissue and vaginal fluid [1]: 2 to 3 days
